In ChEMBL document CHEMBL1129374 (J Med Chem, 1996):
pIC50: −log10 of the molar value.

Legend:
[1] = system: L1210; assay: Compound was evaluated for the inhibition of L1210 murine leukemia cell growth.; type: functional, cell-based; settings: Mus musculus
[2] = target: T1, Folylpolyglutamate synthase, mitochondrial (Homo sapiens, UniProt Q05932); assay: Compound was evaluated for the inhibitory activity against Folyl-polyglutamate synthase from CCRF-CEM human leukemia cells.; type: cell-based
T1 sequence (Q05932 whole entry): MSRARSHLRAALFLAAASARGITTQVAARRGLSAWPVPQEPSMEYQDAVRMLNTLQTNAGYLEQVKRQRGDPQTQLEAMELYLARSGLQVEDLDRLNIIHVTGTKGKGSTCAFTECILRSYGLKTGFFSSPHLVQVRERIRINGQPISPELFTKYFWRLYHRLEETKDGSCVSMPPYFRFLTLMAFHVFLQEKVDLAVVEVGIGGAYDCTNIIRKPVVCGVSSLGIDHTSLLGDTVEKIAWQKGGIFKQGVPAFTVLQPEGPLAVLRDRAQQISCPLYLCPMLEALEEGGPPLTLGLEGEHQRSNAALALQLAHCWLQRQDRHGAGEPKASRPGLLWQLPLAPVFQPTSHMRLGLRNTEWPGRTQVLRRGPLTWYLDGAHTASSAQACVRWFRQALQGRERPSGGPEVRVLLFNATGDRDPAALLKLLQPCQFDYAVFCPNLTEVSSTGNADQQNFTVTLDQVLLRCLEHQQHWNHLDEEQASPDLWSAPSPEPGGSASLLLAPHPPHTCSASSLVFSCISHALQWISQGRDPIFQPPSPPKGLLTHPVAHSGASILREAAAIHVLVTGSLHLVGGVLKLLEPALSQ

[3] = target: T2, Dihydrofolate reductase (Mus musculus, UniProt P00375); assay: compound was evaluated for the inhibitory activity against Dihydrofolate reductase in permeabilised L1210 cells.; type: cell-based
T2 sequence (P00375 whole entry): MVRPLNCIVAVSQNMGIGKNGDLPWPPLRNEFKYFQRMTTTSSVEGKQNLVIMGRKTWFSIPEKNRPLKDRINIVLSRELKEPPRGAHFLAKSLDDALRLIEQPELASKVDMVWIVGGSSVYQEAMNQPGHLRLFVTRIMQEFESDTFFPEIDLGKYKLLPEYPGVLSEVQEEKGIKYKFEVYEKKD

[4] = system: L1210; assay: Compound was evaluated for the inhibition of L1210 murine leukemia cell growth.(In this study); settings: Mus musculus
[5] = system: L1210; assay: Compound was evaluated for the inhibition of L1210 murine leukemia cell growth.(From ref 12b); settings: Mus musculus

pIC50 [1]	pIC50 [2]	pIC50 [3]	pIC50 [4]	pIC50 [5]	Structure (SMILES)
7.04	< 3.70	5.89			CN(Cc1cnc2nc(N)nc(N)c2n1)c1ccc(C(=O)NC(Cc2cnc[nH]2)C(=O)O)cc1 (configuration not stated)
< 4.00	< 3.70	< 4.00			Nc1nc2ncc(CNc3ccc(C(=O)NC(Cc4cnc[nH]4)C(=O)O)cc3)nc2c(=O)[nH]1 (configuration not stated)
	5.49		8.15	5.89	CN(Cc1cnc2nc(N)nc(N)c2n1)c1ccc(C(=O)N[C@@H](CCC(=O)O)C(=O)O)cc1 [METHOTREXATE]

Structure (SMILES)	pIC50 [1]	pIC50 [2]	pIC50 [3]	pIC50 [4]	pIC50 [5]
CN(Cc1cnc2nc(N)nc(N)c2n1)c1ccc(C(=O)NC(Cc2cn(CC(=O)O)cn2)C(=O)O)cc1 (configuration not stated)	6.82	< 3.70	6.43		
